From US6713057B1, “Compositions and methods for modulating serum cholesterol” (The Johns Hopkins University, priority 1999, dated 2004)
Blank lines part the entries; values can stand above or below the compound they belong to.

Columns and labels:
SREBP-1 [1] = assay: SREBP-1 proteolysis (maturation) assay, Western immunoblot of nuclear fractions, HH-25 hepatocytes; assay type: cell-based, human; settings: for induction of SREBP-1 maturation (increase in mature SREBP-1), in words: HH-25 hepatocytes, sterol independent
Experimental: FIGS. 2A-2C illustrate effects of TNF-α sphingomyelinase and C2-ceramide on the kinetics of SREBP-1 maturation—FIGS. 2A-2C is explained in more detail as follows: Cells were maintained in media supplemented with 1 μg/ml 25-hydroxy cholesterol and 15 μg/ml cholesterol for 24 hours before the experiment. The cells were treated for the indicated time as described in materials and methods. The cells were then harvested in PBS, pelleted and frozen. Lysis and nuclear fractionation were performed as described. Nuclear fractions (50 μg of protein) were electrophoresed on a 7.5% polyacrylamide gel and transferred to a PVDF membrane. Western blotting was performed as described. Band intensity was quantified via densitometry. Error bars represent ±one standard deviation from the mean. 2A) The kinetics of SREBP maturation as measured by the increase in mature SREBP-1 are plotted. Fold increase was calculated by comparing each time point to the corresponding control value (TNF-α is represented by stippled bars, bacterial sphingomyelinase is represented by light gray bars and C2-ceramide by the dark bars.) 2B) Cells were treated with TNF-α (10 ng/ml) and prepared as described above. The bands corresponding to the precursor and mature forms of SREBP-1 were quantified and their ratio plotted. 2C) Representative Western blots from which numerical data was derived. Incubation time is indicated above and applies to all conditions. The membranes were exposed to film for 15 seconds. P and M denote the precursor and mature forms of SREBP-1 respectively.
FIGS. 3A-3C show effects of TNF-α, sphingomyelinase and C2-ceramide concentration on SREBP-1 maturation—The FIGS. 3A-3C are explained in more detail as follows. […] Nuclear pellets were prepared and electrophoresed (50 μg of protein). The bands corresponding to the precursor and mature forms of SREBP-1 were quantified. The precursor to mature ratios were normalized to a single control to facilitate comparison. The control ratio was arbitrarily assigned a value of 1. A Unit of sphingomyelinase activity hydrolyzes 1.0 μmol of sphingomyelin per minute at 37° C. FIG. 3A (ng/ml TNF-α); FIG. 3B (mUnits of sphingomyelinase); FIG. 3C (micromolar C2-ceramide).
HH-25 cells were grown in alpha-minimal essential media supplemented with 100 units/ml penicillin, 100 µg/ml streptomycin, […], 0.1 μM selenium, 5.5 μg/ml transferrin, 0.5 μg/ml linoleic acid and 10% fetal bovine serum (media A). The cells were incubated in serum free F10 media for 30 to 60 minutes prior to initiating treatment with TNF-α, C2-ceramide or sphingomyelinase.
Following treatment, the cells were washed with 5 ml of PBS and pelleted at 1500×g for 10 minutes at 4° C. The pellet was stored at −70° C. and lysed in 0.5 ml buffer A (10 mM HEPES pH 7.4, 5 mM EDTA, 0.25 mM EGTA, 50 mM NaF, 7 mM β-mercaptoethanol, 0.35M sucrose, 0.1% NP-40 and protease inhibitors 1 mM PMSF, 2 μg/ml aprotinin, 10 μg/ml leupeptin and 5 μg/ml pepstatin). The lysate was centrifuged at 12,000×g for 15 minutes at 4° C. to prepare a nuclear fraction. The protein concentration of these samples was determined by the method of Lowry et al. al. (19).
50 μg of nuclear protein was separated by gel electrophoresis on a 7.5% polyacrylamide gel. Gels were calibrated by high range molecular weight markers (Bio-Rad product #161-0303, New York, N.Y.) which were transferred to a polyvinyl difluoride (PVDF) membrane and visualized with coomassie staining. Rabbit polyclonal antibodies against SREBP-1 were used at 0.5 μg/ml according to the instructions of the manufacturer. The antibody was visualized with horseradish peroxidase conjugated anti-rabbit IgG made in donkey (Amersham) using the Enhanced Chemiluminescence (ECL) Western Blotting Detection System Kit (Amersham). PVDF membranes were exposed to Hyperfilm ECL (Amersham) for the indicated time. Immunoblots were quantified via densitometry performed on a PDI densitometer scanner (model 20J7) coupled to a SPARC IRC workstation.

SREBP-1 [2] = assay: Indirect immunofluorescence of SREBP-1 subcellular localization; assay type: cell-based, human; settings: 30 minutes after initiating treatment; TNF-α 10 ng/ml, sphingomyelinase 100 mUnits, C2-ceramide 10 μM
Experimental: FIGS. 5A-5D show indirect immunofluorescence of SREBP-1. FIGS. 5A-5D are discussed in more detail as follows. SREBP-1 was visualized with rabbit polyclonal antibodies directed towards the N-terminal DNA binding domain which is common to both the precursor and mature forms. Cells were maintained in media supplemented with 1 μg/ml 25-hydroxycholesterol and 15 μg/ml cholesterol for 24 hours before the experiment. Immunofluorescence was performed as described. All magnifications are 40× and all photographs were taken of samples that were fixed 30 minutes after initiating treatment. FIG. 5A) Control cells, FIG. 5B) Cells treated with TNF-α (10 ng/ml), FIG. 5C) Cells treated with sphingomyelinase (100 mUnits), FIG. 5D) Cells treated with C2-ceramide (10 μM).
Cultured HH-25 cells were grown on coverslips and treated as described. After treatment, the cells were washed 3×5 minutes with PBS containing 1 mM MgCl2 and 0.1 mM CaCl2 (solution A). The cells were fixed with 3% paraformaldehyde in solution A for 10 minutes and permeabilized with 0.5% Triton X-100 in solution A for 6 minutes at room temperature. The coverslips were then washed 3×5 minutes with solution A.
Primary antibody (anti-SREBP1) was used at a dilution of […] in PBS and applied for 1 hour with gentle shaking. The cells were washed as above and a FITC conjugated anti-rabbit IgG secondary antibody, was applied for ½ hour according to the instructions of the manufacturer. The coverslips were washed, mounted on microscope slides and were viewed and photographed at the indicated magnification on a Zeiss Axiovert 25 fluorescence microscope.

SREBP-1 [3] = assay: Electrophoretic mobility shift assay, SREBP-1 binding to SRE probe; assay type: cell-based, human; settings: TNF-α 10 ng/ml, sphingomyelinase 100 mUnits, C2-ceramide 10 μM
Experimental: FIGS. 6A-6D show electrophoretic mobility shift assays. FIGS. 6A-D are explained in more detail as follows. Cells were maintained in sterol supplemented media. Nuclear pellets were prepared and assayed as described in materials and methods. Probe that has been bound by mature SREBP-1 is indicated as “Bound”. Unbound probe is indicated as “Free”. The kinetics (in minutes) of SREBP-1 binding to the probe in response to treatment with (FIG. 6A). TNF-α (10 ng/ml), (FIG. 6B) sphingomyelinase (100 mUnits) and (FIG. 6C) C2-ceramide ([…]). (FIG. 6D). The cells were treated with either TNF-α (10 ng/ml), sphingomyelinase (100 mUnits) or C2-ceramide (10 μM) for 15 minutes. Supershift assays were then performed with antibodies raised against the DNA binding domain of SREBP-1. The presence or absence of antibody is indicated by (+) and (−) respectively. Pre-immune IgG was used as a control.
Gel mobility shift assays were performed as follows. Each 20 μl reaction mixture contained 8-10 μg of nuclear protein plus a α-[^32P]-labeled 25-base pair oligonucleotide probe containing the SREBP-binding site (14) in binding buffer (10 mM Hepes, pH 7.5, 0.5 mM spermidine, 0.15 mM EDTA, 10 mM dithiothreitol, 0.35 mM sucrose). The reaction mixture was incubated at room temperature for 15 min and loaded directly onto a 6.5% polyacrylamide (49:0.6 acrylamide/bisacrylamide) gel in a buffer of 25 mM Tris borate (pH 8.0), 0.25 mM EDTA. In some experiments, antisera specific for SREBP or preimmune sera were added to reaction mixtures to determine the composition of protein-probe complexes. For these “supershift” assays, extracts were incubated with 1 μl of preimmune sera or an equal volume of anti-SREBP antisera at 4° C. for 30 min prior to addition of α-[^32P]-labeled probe. In all experiments, proteins were separated by electrophoresis at 200 V for 2 h at room temperature. Gels were dried and exposed to Kodak XAR film with intensifying screens. Assays were repeated with nuclear extracts obtained from three unique experiments and evaluated by phosphoimage analysis to ensure reproducibility of results.

Experimental for HH-25 cells: Cells were treated with either TNF-α, sphingomyelinase or C2-ceramide for 1 hour at concentrations identical to those used in the SREBP-1 maturation studies. The cells were then washed twice with minimal essential medium and refed with media A for 6 hours. […] Genomic DNA was electrophoresed and stained with ethidium bromide.

- amount of probe bound (electrophoretically retarded) by mature SREBP-1 (SREBP-1 [3]): increases
Compound: Sphingomyelinase
- decrease in the precursor to mature ratio (SREBP-1 [1]; 250 milliunits of sphingomyelinase activity): 80%
- increase in mass of the mature form of SREBP-1 (SREBP-1 [1]; after 15 minutes of treatment, sterol supplemented media): 2.5 fold
- persistence of the increase in mature SREBP-1 (SREBP-1 [1]; after 60 minutes): persisted after 60 minutes
- subcellular localization of SREBP-1 (staining pattern) (SREBP-1 [2]): intense nuclear staining and little extra-nuclear staining
- induction of apoptosis (160 bp DNA ladder) (HH-25 cells): did not induce apoptosis

Compound: CCCCCCCCCCCCCCC[C@@H](O)[C@H](CO)NC(C)=O [C2-dihydroceramide, reference compound]
- induction of SREBP-1 maturation (increase in mature SREBP-1), in words (SREBP-1 [1]): could not be induced

Compound: PDGF
- induction of SREBP-1 maturation (increase in mature SREBP-1), in words (SREBP-1 [1]): could not be recapitulated
